From PubChem BioAssay AID330 (DTP/NCI, 2004)
Where “and” joins values, the source holds several entries; their conditions need not be identical. Identical values can stand only once. Toxic doses and inconclusive results are not listed. Rule for the calls: active = survival T/C of 150% or more; inactive = T/C below 125% in these data.

System: P388 leukemia ip, CD2F1 mice, survival T/C
Test: NCI In Vivo Anticancer Drug Screen. Data for tumor model P388 Leukemia (intraperitoneal) in CD2F1 (CDF1) mice
Conditions: endpoint: median survival time, higher = longer survival
Outline: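 Mice carrying the transplanted tumor received test compound or vehicle. Survival was recorded in each group, and the value is the treated-group measurement divided by that of the vehicle-treated control group.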

[1] = dose: 50.0 mg/kg/injection, schedule: Q01DX009 (ip), vehicle: saline with Tween-80
[2] = dose: 100.0 mg/kg/injection, schedule: Q01DX009 (ip), vehicle: saline with Tween-80
[3] = dose: 200.0 mg/kg/injection, schedule: Q01DX009 (ip), vehicle: saline with Tween-80
[4] = dose: 50.0 mg/kg/injection, schedule: Q01DX005 (ip), vehicle: saline with Tween-80
[5] = dose: 100.0 mg/kg/injection, schedule: Q01DX005 (ip), vehicle: saline with Tween-80
[6] = dose: 50.0 mg/kg/injection, schedule: Q01DX009 (ip), vehicle: Klucel (hydroxypropylcellulose) (HPC)
[7] = dose: 100.0 mg/kg/injection, schedule: Q01DX009 (ip), vehicle: Klucel (hydroxypropylcellulose) (HPC)
[8] = dose: 200.0 mg/kg/injection, schedule: Q01DX009 (ip), vehicle: Klucel (hydroxypropylcellulose) (HPC)
[9] = dose: 25.0 mg/kg/injection, schedule: Q01DX009 (ip), vehicle: saline with Tween-80
[10] = dose: 60.0 mg/kg/injection, schedule: Q01DX005 (ip), vehicle: Klucel (hydroxypropylcellulose) (HPC)
[11] = dose: 120.0 mg/kg/injection, schedule: Q01DX005 (ip), vehicle: Klucel (hydroxypropylcellulose) (HPC)
[12] = dose: 240.0 mg/kg/injection, schedule: Q01DX005 (ip), vehicle: Klucel (hydroxypropylcellulose) (HPC)
[13] = dose: 100.0 mg/kg/injection, schedule: Q01DX001 (ip), vehicle: saline with Tween-80
[14] = dose: 200.0 mg/kg/injection, schedule: Q01DX001 (ip), vehicle: saline with Tween-80
[15] = dose: 400.0 mg/kg/injection, schedule: Q01DX001 (ip), vehicle: saline with Tween-80
[16] = dose: 60.0 mg/kg/injection, schedule: Q01DX005 (ip), vehicle: saline with Tween-80
[17] = dose: 120.0 mg/kg/injection, schedule: Q01DX005 (ip), vehicle: saline with Tween-80
[18] = dose: 240.0 mg/kg/injection, schedule: Q01DX005 (ip), vehicle: saline with Tween-80
[19] = dose: 50.0 mg/kg/injection, schedule: Q04DX002 (ip), vehicle: saline with Tween-80
[20] = dose: 100.0 mg/kg/injection, schedule: Q04DX002 (ip), vehicle: saline with Tween-80
[21] = dose: 400.0 mg/kg/injection, schedule: Q01DX009 (ip), vehicle: saline with Tween-80

Measured: T/C

C/C=C(\C)C(=O)N/N=C\c1ccc(O)cc1O
inactive: [1] 104 % of control | [2] 96 % of control | [3] 91 % of control

COc1cc(NC(=O)c2ccc(NC(=O)c3ccc(N)cc3)cc2)c(OC)cc1N=Nc1cc(C)c(N=Nc2cc(S(=O)(=O)O)c3cccc(S(=O)(=O)O)c3c2)cc1C
inactive: [4] 100 % of control | [5] 94 % of control

COc1ccc(Cl)cc1C(=O)NCCc1ccc(CCC(=O)O)cc1
inactive: [6] 99 % of control | [7] 98 % of control | [8] 102 % of control

O=[N+]([O-])c1cccc(C(O)(C(F)(F)F)C(F)(F)F)c1
inactive: [9] 95 % of control | [1] 97 % of control | [2] 106 % of control | dose: 100.0 mg/kg/injection, schedule: Q04DX002 (ip), vehicle: suspension in saline 112 % of control | [3] 98 % of control

CCOC(=O)c1[nH]c(=O)c2cccnc2c1O
inactive: dose: 30.0 mg/kg/injection, schedule: Q01DX005 (ip), vehicle: Klucel (hydroxypropylcellulose) (HPC) 97 % of control | [10] 94 % of control and 98 % of control | [11] 106 % of control and 96 % of control | [12] 113 % of control

CCCCCCCCCCCC(=O)N(CCOC(=O)c1ccccc1)CCc1ccccc1
inactive: [1] 109 % of control | [2] 109 % of control | [3] 116 % of control

COc1ccc(S(=O)(=O)N/N=C\c2cc([N+](=O)[O-])ccc2O)cc1OC
inactive: [4] 109 % of control | [5] 109 % of control | dose: 200.0 mg/kg/injection, schedule: Q01DX005 (ip), vehicle: saline with Tween-80 100 % of control

c1ccc2c(-c3nc4ccccc4c4ccccc34)nccc2c1
inactive: [13] 92 % of control | [14] 92 % of control | [15] 99 % of control

Cc1noc(C)c1Br
inactive: [1] 97 % of control | [2] 102 % of control | [3] 102 % of control

CCCCCCCCC1SC1CCCCCCCCOC(=O)CCCCCCCC1SC1CCCCCCCC (configuration not stated)
inactive: [13] 95 % of control | [14] 95 % of control | [15] 95 % of control

CC1[C@@H]2CC=C3[C@H]4CCC5Cc6nc7c(nc6C[C@@]5(C)C4CC(=O)[C@]32CO[C@]12OC(C)(C)CC2O)CC1CC[C@@H]2C3=C[C@H]4O[C@@]5(O[C@@](C)(CO)C[C@@H]5O)C(C)[C@@]4(O)[C@]3(C)[C@@H](O)CC2[C@]1(C)C7 (some centres not stated)
inactive: dose: 0.08 mg/kg/injection, schedule: Q01DX009 (ip), vehicle: saline + alcohol 86 % of control | dose: 10.0 micrograms/kg/injection, schedule: Q01DX005 (ip), vehicle: saline + alcohol 115 % of control and 117 % of control | dose: 20.0 micrograms/kg/injection, schedule: Q01DX005 (ip), vehicle: saline + alcohol 114 % of control and 115 % of control | dose: 80.0 micrograms/kg/injection, schedule: Q01DX005 (ip), vehicle: saline + alcohol 123 % of control

C=C1Cc2cc(OC)c(OC)cc2C(c2cccc(Cl)c2)=NN1C(C)=O
inactive: [16] 95 % of control | [17] 97 % of control | [18] 100 % of control

COc1ccc(OC)c(N=Cc2cccs2)c1
inactive: dose: 50.0 mg/kg/injection, schedule: Q01DX009 (ip), vehicle: saline 90 % of control | dose: 100.0 mg/kg/injection, schedule: Q01DX009 (ip), vehicle: saline 100 % of control | dose: 200.0 mg/kg/injection, schedule: Q01DX009 (ip), vehicle: saline 92 % of control

Cc1cccc(NCc2ccccn2)n1
inactive: [4] 103 % of control | [5] 103 % of control

[CH3][Ge]1([CH3])[CH2]C(c2ccccc2)C(c2ccccc2)[CH2]1 (configuration not stated)
inactive: [10] 100 % of control | [11] 97 % of control | [12] 98 % of control

O=C1CCC(=O)N1CCCN1CCOCC1
inactive: dose: 60.0 mg/kg/injection, schedule: Q01DX005 (ip), vehicle: saline 89 % of control | dose: 120.0 mg/kg/injection, schedule: Q01DX005 (ip), vehicle: saline 88 % of control | dose: 240.0 mg/kg/injection, schedule: Q01DX005 (ip), vehicle: saline 99 % of control

CCOC(=O)c1ccc(NC(=O)Nc2ccc(N(C)C(C)=O)cc2)cc1
inactive: [10] 90 % of control | [11] 90 % of control | [12] 88 % of control

O=C(NCc1cccnc1)Nc1cccc2c(NC(=O)NCc3cccnc3)cccc12
inactive: [16] 91 % of control | [17] 86 % of control | [18] 86 % of control

CN(c1ccccc1)C(C#N)c1n[nH]c(=O)[nH]1 (configuration not stated)
inactive: dose: 25.0 mg/kg/injection, schedule: Q04DX002 (ip), vehicle: saline with Tween-80 100 % of control | [19] 100 % of control | [20] 93 % of control

ClC1C(Cl)C(Cl)C(Cl)C(Cl)C1Cl (configuration not stated)
inactive: dose: 12.5 mg/kg/injection, schedule: Q01DX009 (ip), vehicle: Klucel (hydroxypropylcellulose) (HPC) 104 % of control and 113 % of control | dose: 25.0 mg/kg/injection, schedule: Q01DX009 (ip), vehicle: Klucel (hydroxypropylcellulose) (HPC) 104 % of control and 97 % of control | [9] 100 % of control and 104 % of control | [6] 105 % of control and 98 % of control | [1] 100 % of control and 108 % of control | [19] 100 % of control | [7] 89 % of control and 95 % of control | [2] 100 % of control and 108 % of control | [20] 100 % of control | dose: 150.0 mg/kg/injection, schedule: Q01DX009 (ip), vehicle: Klucel (hydroxypropylcellulose) (HPC) 99 % of control and 87 % of control | [3] 100 % of control and 110 % of control | dose: 200.0 mg/kg/injection, schedule: Q04DX002 (ip), vehicle: saline with Tween-80 90 % of control | [21] 101 % of control and 114 % of control

CCC1(c2ccccc2)C(=O)N(C)C(=O)N(CCCl)C1=O (configuration not stated)
inactive: [6] 96 % of control | [7] 98 % of control | [8] 93 % of control

CCS(=O)(=O)/C=C\S(=O)(=O)CC
inactive: dose: 1.56 mg/kg/injection, schedule: Q04DX003 (ip), vehicle: Klucel (hydroxypropylcellulose) (HPC) 100 % of control | dose: 3.12 mg/kg/injection, schedule: Q04DX003 (ip), vehicle: Klucel (hydroxypropylcellulose) (HPC) 98 % of control | dose: 6.25 mg/kg/injection, schedule: Q04DX003 (ip), vehicle: Klucel (hydroxypropylcellulose) (HPC) 100 % of control

Cc1ccc(/C=N/N=c2/sc3ccccc3n2CC(=O)O)cc1
inactive: [13] 98 % of control | [14] 92 % of control | [15] 89 % of control

COC(=O)[C@@H]1CC/C(=C(\C#N)C(=O)OC(C)(C)C)N1
inactive: [16] 95 % of control | [17] 96 % of control | [18] 91 % of control

CCN(CC)CCCC(C)Nc1cc(OC)c2nc(C)cc(OC)c2c1OC (configuration not stated)
inactive: dose: 1.56 mg/kg/injection, schedule: Q01DX009 (ip), vehicle: saline 100 % of control | dose: 3.12 mg/kg/injection, schedule: Q01DX009 (ip), vehicle: saline 89 % of control | dose: 6.25 mg/kg/injection, schedule: Q01DX009 (ip), vehicle: saline 91 % of control and 97 % of control

CCCCNC(c1ccc(N(CC)CC)cc1)C(Br)(Br)Br (configuration not stated)
inactive: dose: 50.0 mg/kg/injection, schedule: Q01DX005 (ip), vehicle: saline 114 % of control | dose: 100.0 mg/kg/injection, schedule: Q01DX005 (ip), vehicle: saline 101 % of control | dose: 200.0 mg/kg/injection, schedule: Q01DX005 (ip), vehicle: saline 107 % of control

Cc1ccc(N2C(=O)c3ccccc3NC2(C)CCl)cc1 (configuration not stated)
inactive: [1] 103 % of control | [2] 103 % of control | [3] 112 % of control

CCC12C=CCN3CC[C@@]4(c5cc([C@@]6(C(=O)OC)C[C@@H]7CN(CCc8c6[nH]c6ccccc86)C[C@](O)(CC)C7)c(OC)cc5N(C)[C@H]4[C@@](O)(C(=O)OC)[C@@H]1OC(=O)CCCCCCCCCCCN1C(=O)C=CC1=O)[C@H]32 (some centres not stated)
active: dose: 12.5 mg/kg/injection, schedule: Q01DX001 (ip), vehicle: saline with Tween-80 161 % of control | dose: 25.0 mg/kg/injection, schedule: Q01DX001 (ip), vehicle: other 200 % of control | dose: 25.0 mg/kg/injection, schedule: Q01DX001 (ip), vehicle: saline with Tween-80 238 % of control | dose: 25.0 mg/kg/injection, schedule: Q01DX001 (ip), vehicle: saline 202 % of control | dose: 50.0 mg/kg/injection, schedule: Q01DX001 (ip), vehicle: saline 215 % of control
inactive: dose: 6.25 mg/kg/injection, schedule: Q01DX001 (ip), vehicle: other 124 % of control

CNc1ccccc1C(=O)C(=O)O
inactive: [2] 105 % of control | [3] 102 % of control | [21] 100 % of control
